The text below walks through data of patent US10513494B2, “Methods, compounds, and compositions for anesthesia” (THE BOARD OF TRUSTEES OF THE LELAND STANFORD JUNIOR …, priority 2014, dated 2019).

Assay [1] concerns American bullfrog Rana catesbeiana tadpoles. Put plainly: Loss of righting reflex (LORR) in tadpoles. It is filed as in vivo. To be noted: Aquarana catesbeiana, water bath exposure. On the procedure: Anesthesia is defined as the combination of a lack of movement to a given stimulus, lack of awareness, amnesia and analgesia. The surrogate of such is manifest in the tadpole as the loss of righting reflex (LORR). Early prelimb-bud stage American bullfrog Rana catesbeiana tadpoles (5 per 50 ml beaker) were placed in room temperature oxygenated water buffered with 2.5 mM Tris HCl buffer (pH=7.4) and containing a concentration of test compound ranging from 0.11 uM-1 mM. Tadpoles were manually tipped every 5 min with a glass rod or stream of water until their righting reflex response stabilized or 120 minutes elapses. […] At the end of each study, tadpoles were transferred to fresh water to assess whether the anesthetic action was reversible.

In another assay the test system is native GABA-A receptors. The assay can be described thus: Electrophysiology in hippocampal brain slices (paired pulse inhibition, CA1). It is filed as cell-based. To be noted: rat hippocampal slice.
For another assay, the system named is GABAaR. To be noted: known literature value; read-out: EC50 for GABAaR potentiation; cited from earlier work.
In assay [2] the test system is American bullfrog Rana catesbeiana tadpoles. The assay can be described thus: Loss of righting reflex (LORR) in tadpoles. Type of assay: in vivo. The following applies: Aquarana catesbeiana; text refers to Table 2; read-out: EC50 for GABAaR potentiation in tadpoles.

Read-outs that look alike come from different tables or passages of the source.

Procedure for native GABA-A receptors: Brain slices were prepared from male Sprague-Dawley rats that had been deeply anesthetized with isoflurane. The brain was quickly removed and placed in ice-cold artificial cerebrospinal fluid (ACSF) that was saturated with 95% O2 and 5% CO2 (carbogen) to achieve a pH of 7.4. The ACSF was composed of the following ions dissolved in spectrophotometry grade water (EMD Chemicals Inc., Billerica, Mass.) and stated in millimolar concentrations: Na 151.25, Cl 131.5, HCO3 26, K 2.5, Ca 2, Mg 2, SO4 2, H2PO4 1.25, and glucose 10. Coronal brain slices were prepared using a vibratome (Model 1500, Technical Products International Inc., St. Louis, Mo.) and 400-μm-thick slices were hemisected and placed on cellulose filter papers. They were stored at a gas (carbogen)-liquid (ACSF) interface in a holding chamber for at least 1 hour before use. […]
Evoked field potentials were measured using thin-walled glass pipettes (1.0 ID, 1.5 OD; Garner Glass Co., Claremont, Calif.) filled with ACSF. […]
Recorded signals were conditioned using an Axoclamp 2B preamplifier (Axon Instruments, Sunnyvale, Calif.) with a bandpass from DC to 30 kHz and gain of ×10. […] Responses were measured and plotted in real time to ensure that stable baselines (<±2.0% variation) were recorded for at least 20 minutes before the experiments began. […]

In the case of `COC(=O)c1cc(-c2ccc(Br)cc2)n(-c2cccc(Cl)c2C)c1C` [J], the half-maximal effective concentration (EC50) (usually the concentration that produces a half-maximal response) in assay [1] was over 40 µM. With `CCOC(=O)c1cc(C)n(-c2cccc(Cl)c2Cl)c1-c1ccccc1` [M], the EC50 in assay [1] is about 20 µM.

In the case of `CCOC(=O)c1cc(-c2ccc(Cl)cc2)n(-c2ccccc2)c1C` [Compound B], the “concentration at which paired pulse inhibition was noted” value with native GABA-A receptors was found to be 100 µM. In assay [1], the EC50 was found to be 0.53 µM. For the compound `CCOC(=O)c1cn(-c2ccc(Cl)cc2Cl)c(-c2ccc(Br)cc2)n1` [Compound 1n], the concentration for a half-maximal effect (EC50) in the assay on GABAaR was 0.19 µM. As for `COC(=O)c1cc(-c2ccc(Br)cc2)n(-c2ccc(Br)cc2)c1C` [K], the EC50 in assay [1] was about 40 µM. Regarding `Cc1cc(C(=O)OCc2c(Cl)cccc2Cl)c(C)n1-c1ccccc1` [C], the EC50 in assay [1] was about 5 µM. On the same count and under the same terms, the value for `COC(=O)c1cc(-c2ccc(C)c(C)c2)n(-c2ccc(Cl)c(Cl)c2)c1C` [H] was over 40 µM. `CCOC(=O)c1cc(-c2ccc(OC)cc2)n(-c2ccc(Cl)cc2)c1C` [Compound A]: the values for the EC50 in assay [2] and in assay [1] were about 1.5 µM and 1.5 µM, respectively. On to `Cc1cc(C(=O)OCc2ccc(Cl)cc2)c(C)n1-c1ccc(F)cc1` [E], for which the EC50 in assay [1] is about 40 µM. As for `Cc1cc(C(=O)OCc2ccc(Cl)cc2Cl)c(C)n1-c1ccccc1` [D], in assay [1], the EC50 is about 20 µM. The same measure, in the same setting: the result for `COC(=O)c1cc(-c2ccc(C)c(C)c2)n(-c2ccc(F)cc2Br)c1C` [G] reads about 3 µM. For `COC(=O)c1cc(-c2ccc(C)c(C)c2)n(-c2ccc(Br)cc2)c1C` [F], the EC50 in assay [1] was about 20 µM. With `Oc1ccccc1` [phenol], in the assay on GABAaR, the EC50 is 920 µM.
